Results published in patent US20230340440A1, “GENETIC MANIPULATION METHOD IN BACTERIA” (University of Washington, priority 2022, published 2023).
Converted amounts (≈) assume the structure as drawn. Where two headings read alike, the source gives them in different places.

What was measured:
LacI-Ptrc promoter = assay: inducible LacI-Ptrc-mediated activation of an mRFP reporter gene; assay type: cell-based, P. putida KT2440; conditions: 1 mM IPTG compared to the no inducer condition
Description: (§1) FIGS. 17A-17C show inducible promoters in P. putida (FIG. 17A). Inducible LacI-Ptrc-mediated activation of an mRFP reporter gene in P. putida KT2440 with 0-1 mM IPTG. A 13-fold activation at 1 mM IPTG was observed compared to the no inducer condition. Inducible XylS-Pm-mediated activation of an mRFP reporter gene in P. putida KT2440 with 0-5 mM m-toluic acid (FIG. 17B). […] The XylS-Pm promoter provides a better dynamic range compared to LacI-Ptrc promoter mainly due to its relatively low basal expression. mRFP reporter gene fluorescence distributions measured by flow cytometry (FIG. 17C). […] Values in FIG. 17A represent the mean ± standard deviation calculated from n = 6 independent biological replicates. Values in FIG. 17B represent the mean ± standard deviation calculated from n = 3 independent biological replicates. […]
(§2) Fluorescence measurements of reporter gene expression were carried out either by flow cytometry or plate reader. […] For flow cytometry, overnight cultures were diluted 1:50 in Dulbecco’s phosphate-buffered saline (PBS) and analyzed on a MACSQuant VYB flow cytometer with the MACSQuantify 2.8 software (Miltenyi Biotec) using the methods and instruments settings as described (Dong et al., 2018. Synthetic CRISPR-Cas gene activators for transcriptional reprogramming in bacteria. Nat Commun 9, 2489). […]

P. putida cultures = assay: consumption of extracellular p-ACA by growing P. putida cultures; conditions: stability of accumulation in culture supernatant
p-ACA solubility limit = assay type: physicochemical; conditions: aqueous buffer; extracellular, culture media
P. putida = assay: growth experiment with extracellular p-ACA, P. putida; assay type: cell-based
Text: (§3) FIGS. 31A-31F show CRISPRa efficiency can be tuned by expression level of scRNA. The optimized expression level of scRNA from pBBR1-GmR is under J23110 promoter. Higher level (BBa_J23119) or lower level (BBa_J23106) led to decrease in CRISPRa effects (FIG. 31A). CRISPRa efficiency can be tuned by scRNA composition (FIG. 31B). Truncating the spacer sequence from 20 nucleotides to 8 nucleotides led to titratable expression level by CRISPRa. Desired product p-ACA is toxic to E. coli but not P. putida (FIG. 31C). In this kinetic growth experiment, extracellular p-ACA is supplied in the media at the indicated concentrations, and cultures are grown in a plate reader with periodic density measurements. E. coli growth is severely limited above 20 mM p-ACA (dash-dotted line). Early timepoints are sometimes obscured by p-ACA precipitate, which eventually resolubilizes. […] Error bars represent standard deviation of n=3 biological replicates. […] An example of CRISPRa with 3 orthogonal scRNAs activating 3 fluorescent reporters (FIG. 31E). Multiple scRNAs construction strategy was based on Golden-Gate Assembly (FIG. 31F).
(§4) With further chemical modification or bioconversions, pACA can be converted into p-aminostyrene (pAS) which is a precursor of derivatized polystyrene, containing a functional group for further modification or functionalization with other polymers. […] Assuming that high concentration of pACA could be deleterious to the host, a growth experiment using E. coli, the standard chassis, and P. putida, known for resistance to aromatic compounds was performed. It is obvious that E. coli cannot tolerate high concentrations of pACA while P. putida growth is less affected. Thus, the solution to microbial production of pACA might be achievable with P. putida as an alternative chassis.
In contrast to E. coli, p-ACA has little effect on P. putida growth, even up to 20 mM extracellular (close to its solubility limit). Therefore, the inventors chose to port the existing pAF pathway into P. putida to extend it to more valuable downstream aromatic products.

E. coli = assay: growth experiment with extracellular p-ACA, E. coli; assay type: cell-based
Text: as §3, §4
As originally implemented in E. coli, the p-AF production pathway consisted of the P. fluorescens papABC operon78 under tet-inducible control, along with a feedback-resistant E. coli aroG74 and aroL in their own operon, which is also tet-inducible. […] Toxic amounts of extracellular p-ACA, the result of a spike into the media, are shown in FIG. 31B, with 50% reduction of E. coli growth occurring above 10 mM extracellular.

XylS-Pm-dCas9 = assay: tunable CRISPRa/CRISPRi in inducible-dCas9 strain (PPC08), J3-BBa_J23110-mRFP reporter; assay type: cell-based, P. putida
Text: FIGS. 5A-5B show CRISPRa with endogenous promoters and inducible CRISPRa/CRISPRi in P. putida. The putative promoter sequences between two open reading frames (ORFs) with 60 bp flanking sequences were incorporated into the mRFP reporter (FIG. 5A). scRNAs were introduced for all potentially activable target sites corresponding to the effective distances as tested in FIGS. 2B & 2C. Precise distances from the target site to the TSS are listed in Table 5. hAAVS1 was used as an off-target scRNA for all ten promoters. […] The inducible-dCas9 strain yielded 3-fold activation with CRISPRa or 7-fold repression with CRISPRi at 1 mM m-toluic acid compared to the no-inducer control. Fold-changes compared to the off-target control were 4-fold and 5-fold, respectively. […] Values represent the mean ± standard deviation calculated from n = 3 independent biological replicates.
(§5) Fluorescence measurements of reporter gene expression were carried out either by flow cytometry or plate reader. Single colonies from LB plates were inoculated in 500 µL of EZ-RDM (Teknova) supplemented with the appropriate antibiotics and grown in 96-deep-well plates at 30° C. with shaking overnight 225 rpm. For small-molecule induction, overnight cultures were diluted 100-fold into a new culture with appropriate antibiotics and inducers, then shaken overnight at 30° C., 225 rpm. For flow cytometry, overnight cultures were diluted 1:50 in Dulbecco’s phosphate-buffered saline (PBS) and analyzed on a MACSQuant VYB flow cytometer with the MACSQuantify 2.8 software (Miltenyi Biotec) using the methods and instruments settings as described (Dong et al., 2018. Synthetic CRISPR-Cas gene activators for transcriptional reprogramming in bacteria. Nat Commun 9, 2489). For plate reader measurements, 150 µL of overnight culture were transferred into a flat, clear-bottomed black 96-well plate. OD600 and fluorescence values were measured in a Biotek Synergy HTX plate reader and analyzed using the BioTek Gen5 2.07.17 software. For mRFP1 detection, the excitation wavelength was 540 nm and emission wavelength was 600 nm. For sfGFP detection, the excitation wavelength was 485 nm and the emission wavelength was 528 nm. Data were plotted using Prism (GraphPad).
A reporter with either an activating scRNA or a repressing sgRNA was delivered to the inducible dCas9 strain (PPC08) and 3-fold activation with CRISPRa or 7-fold repression with CRISPRi at 1 mM m-toluic acid (FIG. 5B) was observed. […] By targeting CRISPRi and CRISPRa to the same locus, we may be able to obtain lower basal expression and higher induced expression. […]

[1] = system: XylS-Pm promoters regulating dCas9 and/or MCP-SoxS; assay: inducible CRISPRa by XylS-Pm on CRISPRa machinery, J3-BBa_J23117-mRFP reporter (pPPC020); assay type: cell-based, P. putida; conditions: for fold-activation in the presence of inducer: J306 scRNA
Text: FIGS. 18A-18B show inducible CRISPRa by XylS-Pm on CRISPRa machinery. Inducible dCas9/MCP-SoxS constructs were integrated into the P. putida genome with the mini-Tn7 method (FIG. 18A). XylS-Pm promoters were introduced in place of the Sp.pCas9 promoter regulating dCas9 and/or the BBa_J23107 promoter for MCP-SoxS. Strains were transformed with a vector (pPPC020) carrying either an off-target scRNA or a J306 scRNA (FIG. 18B). The fold-activation in the presence of m-toluic acid as an inducer are 9-fold, 5-fold, and 10-fold from PPC08, PPC09, and PPC10, respectively. […] If only MCP-SoxS is under control of the inducible promoter, leaky activation is detectable. In a strain with constitutively expressed CRISPRa machinery that should not be responsive to inducer, high inducer concentrations (5 mM) also led to a modest increase in mRFP expression (1.3-fold). Values represent the mean ± standard deviation calculated from n = 3 independent biological replicates.
as §5, with “For sfGFP detection, the excitation wavelength was 485 nm and the emission wavelength was 528 nm. Data were plotted using Prism (GraphPad).” left out
To tune expression levels with CRISPRa and CRISPRi, the CRISPR system components were placed under the control of a small-molecule inducible promoter. dCas9 and/or MCP-SoxS were expressed using XylS-Pm, an inducible promoter system from the P. putida mt-2 toluene degradation pathway (Wirth et al., 2019. Accelerated genome engineering of Pseudomonas putida by I-SceI-mediated recombination and CRISPR-Cas9 counterselection. Microb Biotechnol). […] In all three inducible strains assessed, tunable gene activation as a function of inducer concentration was observed (FIG. 18B). […]

XylS-Pm promoter = assay: inducible XylS-Pm-mediated activation of an mRFP reporter gene; assay type: cell-based, P. putida KT2440; conditions: 1 mM m-toluic acid compared to the no inducer condition
Description: as §1, §2

[2] = 1 mM m-toluic acid compared to the no-inducer control
[3] = 1 mM m-toluic acid compared to the off-target control

Compound: CC(C)S[C@@H]1O[C@H](CO)[C@H](O)[C@H](O)[C@H]1O [IPTG]
- activation of mRFP reporter (LacI-Ptrc) (LacI-Ptrc promoter): 13 fold

Compound: Nc1ccc(C=CC(=O)O)cc1 [p-ACA, p-aminocinnamic acid]
- consumption of extracellular p-ACA by growing P. putida cultures (P. putida cultures): lack of consumption
- solubility (p-ACA solubility limit): ~20 mM (≈ 3260 µg/mL)
- toxicity in P. putida strain with the putative catabolic pathway knocked out (P. putida; follow-up experiments): lack of p-ACA toxicity
- P. putida growth (P. putida; kinetic growth experiment, extracellular p-ACA in the media (FIG. 31C)): relatively unaffected
- effect on P. putida growth (P. putida; up to 20 mM extracellular): little effect
- IC50 (E. coli; Escherichia coli, read-out: 50% reduction of E. coli growth): > 10 mM
- E. coli growth severely limited above (E. coli; kinetic growth experiment, extracellular p-ACA in the media, plate reader (FIG. 31C)): above 20 mM
- toxic effects in E. coli host (E. coli; production/accumulation in E. coli): toxic effects

Compound: Cc1cccc(C(=O)O)c1 [m-toluic acid]
- activation with CRISPRa (XylS-Pm-dCas9; [2]): 3 fold
- repression with CRISPRi (XylS-Pm-dCas9; [2]): 7 fold
- fold-change with CRISPRa (XylS-Pm-dCas9; [3]): 4 fold
- fold-change with CRISPRi (XylS-Pm-dCas9; [3]): 5 fold
- increase in mRFP expression ([1]; 5 mM inducer, strain with constitutively expressed CRISPRa machinery): 1.3 fold
- fold-activation in the presence of inducer ([1]; strain PPC08 (inducible dCas9)): 9 fold
- fold-activation in the presence of inducer ([1]; strain PPC09 (inducible MCP-SoxS)): 5 fold
- fold-activation in the presence of inducer ([1]; strain PPC10 (dCas9 and MCP-SoxS inducible)): 10 fold
- activation of mRFP reporter (XylS-Pm) (XylS-Pm promoter): > 300 fold

Compound: Nc1ccc(C[C@H](N)C(=O)O)cc1 [p-AF, p-aminophenylalanine]
- toxic effects in E. coli host (E. coli): can safely accumulate
